Experimental data reported in PubChem BioAssay (NCI).
Several values for one entry are separate records, joined by “and”; a condition that tells them apart may be missing. Equal entries are not always repeated.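 Tested at 5 concentrations; 48 h exposure; 96-well plates; endpoints linearly interpolated, else capped at highest concentration. GI50 = concentration required for 50% inhibition of growth. At the TGI there is no net growth.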 *1 amine or outer side, *2 acyl side, *3 side chain or, on linkers, in order; H or OH if unused. Where a SMILES comes first, the peptide text is derived from it. Bridges are numbered along the chain shown (N, C = ends). Roman numbers before positions name the chains, in order. [ ]: non-standard residue; d: D form. Actinocin(9to1) = Cc1c2oc3c(C)ccc(C(=O)[*:1])c3nc-2c(C(=O)[*:2])c(N)c1=O; NMeH = CN[CH](Cc1c[nH]cn1)C(=O)O; Sar = CNCC(=O)O

What was measured:
Experiment in all cases: NCI tumour cell line growth inhibition, 48 h
SK-MEL-2 melanoma = tested on: SK-MEL-2 melanoma
MDA-MB-435 = tested on: MDA-MB-435
SK-MEL-5 melanoma = tested on: SK-MEL-5 melanoma
LOX IMVI melanoma = tested on: LOX IMVI melanoma
HS 578T breast = tested on: HS 578T breast
SNB-78 CNS = tested on: SNB-78 CNS
DMS 273 small cell lung = tested on: DMS 273 small cell lung
DLD-1 colon = tested on: DLD-1 colon
LXFL 529 NSCLC = tested on: LXFL 529 NSCLC
DMS 114 small cell lung = tested on: DMS 114 small cell lung
KM20L2 colon = tested on: KM20L2 colon
XF 498 CNS = tested on: XF 498 CNS
HOP-18 NSCLC = tested on: HOP-18 NSCLC

Row | SMILES | TGI (SK-MEL-2 melanoma) | TGI (MDA-MB-435) | TGI (SK-MEL-5 melanoma) | TGI (LOX IMVI melanoma) | TGI (HS 578T breast) | GI50 (HS 578T breast) [µM] | TGI (SNB-78 CNS) [µM] | TGI (DMS 273 small cell lung) [µM] | TGI (DLD-1 colon) [µM] | TGI (LXFL 529 NSCLC) [µM] | TGI (DMS 114 small cell lung) [µM] | TGI (KM20L2 colon) [µM] | TGI (XF 498 CNS) [µM] | TGI (HOP-18 NSCLC) [µM]
1 | O=C(O)CSc1ccccc1C(=O)O | > 100 µM | > 100 µM | > 100 µM | > 100 µM | > 100 µM | – | – | – | – | – | – | – | – | –
2 | O=C1COc2cc(N3CCN(c4cccc(C(F)(F)F)c4)CC3)ccc2N1 | > 100 µM | > 100 µM | > 100 µM | > 100 µM | > 100 µM | – | – | – | – | – | – | – | – | –
3 | Cc1c2oc3c(C)ccc(C(=O)NC4C(=O)NC(C(C)C)C(=O)N5CCCC5C(=O)N(C)CC(=O)N(C)C(Cc5cnc[nH]5)C(=O)OC4C)c3nc-2c(C(=O)NC2C(=O)NC(C(C)C)C(=O)N3CCCC3C(=O)N(C)CC(=O)N(C)C(Cc3cnc[nH]3)C(=O)OC2C)c(N)c1=O (stereo unspecified) (I: TVP[Sar][NMeH] / II: TVP[Sar][NMeH]; ester I:1-I:C, II:1-II:C; linker I:N-II:N via Actinocin(9to1); configuration not given here) | > 100 µM | > 100 µM | 55.9 µM | > 100 µM | > 100 µM | – | – | – | – | – | – | – | – | –
4 | CCC1(O)CC(OC2CC(N(C)C)C(OC3CC(O)C(OC4OC(C)C(=O)C=C4N)C(C)O3)C(C)O2)c2c(cc3c(c2O)C(=O)c2c(O)cccc2C3=O)C1C(=O)OC (stereo unspecified) | 0.104 µM and 0.0118 µM | 0.282 µM and 0.05 µM | 0.179 µM and 0.101 µM | 1.48 µM and 1.56 µM | 0.594 µM and 4.1 µM | 0.0579 | – | – | – | – | – | – | – | –
5 | N#Cc1c(-c2ccc(Cl)cc2)cc(-c2ccc(Nc3ccnc4cc(Cl)ccc34)cc2)[nH]c1=O | > 100 µM | > 100 µM | > 100 µM | > 100 µM | 62.4 µM | – | – | – | – | – | – | – | – | –
6 | CCN1C/C(=C\c2ccc(Cl)cc2)c2nc(N)c(C#N)c(-c3ccc(Cl)cc3)c2C1 | > 100 µM | > 100 µM | > 100 µM | > 100 µM | > 100 µM | – | – | – | – | – | – | – | – | –
7 | CC(C(=O)OCc1ccccc1)N(Cc1ccccc1)Cc1ccccc1 (stereo unspecified) | > 100 µM | – | > 100 µM | – | – | – | > 100 | > 100 | > 100 | > 100 | > 100 | > 100 | 77.7 | –
8 | C=C(C(=O)O[C@H]1C/C(C)=C/CC/C(CO)=C/[C@H]2C(=O)OC(=C)[C@H]12)C(O)CO (stereo partly specified) | 29.6 µM | 26.3 µM | 29.1 µM | 36 µM | 57.9 µM | – | – | – | – | – | – | – | – | –
9 | CC(=O)O[C@H]1CC[C@@]2(C)C(=CC[C@@H]3[C@@H]2CC[C@]2(C)C(=N/O)/C(=C\c4ccccc4)C[C@@H]32)C1 | 39.2 µM | > 33.1 µM | 11.4 µM | 26 µM | 50.9 µM | – | – | – | – | – | – | – | – | –
10 | NS(=O)(=O)c1nc(S(=O)(=O)O)c2[nH]cnc2n1 | > 100 µM | > 100 µM | > 100 µM | > 100 µM | > 100 µM | – | – | – | – | – | – | – | – | –
11 | C#CC(O)(c1nc2ccccc2s1)c1nc2ccccc2s1 | 35.7 µM | 87.6 µM | 30.7 µM | 35.7 µM | > 100 µM | – | – | – | – | – | – | – | – | –
12 | COC(=O)[C@@H]1CS(=O)(=O)C(C(C)C)N1C(C)=O (stereo partly specified) | > 100 µM | > 100 µM | > 100 µM | > 100 µM | > 100 µM | – | – | – | – | – | – | – | – | –
13 | COc1ccc(C2C3=C(N=C4SC(C(C)=O)=C(C)N42)c2ccccc2CC3)cc1 (stereo unspecified) | > 100 µM | > 100 µM | > 100 µM | > 100 µM | > 100 µM | – | – | – | – | – | – | – | – | –
14 | COc1ccccc1OCC(COC(=O)Nc1ccccc1)OC(=O)Nc1ccccc1 (stereo unspecified) | 67.6 µM | – | > 100 µM | > 100 µM | – | – | > 100 | > 100 | > 100 | > 100 | > 100 | > 100 | > 100 | > 100
15 | Cc1cn(C2CCC(CO)(CF)O2)c(=O)[nH]c1=O (stereo unspecified) | > 100 µM | > 100 µM | > 100 µM | > 100 µM | > 100 µM | – | – | – | – | – | – | – | – | –
16 | NNC(=O)Nc1nc2ccc(NN)cc2[nH]1 | > 100 µM | 54 µM | 51.9 µM | > 100 µM | > 100 µM | – | – | – | – | – | – | – | – | –
17 | N#CC1(C#N)C(C#N)(C#N)C1(C#N)C(N)=O | > 100 µM | > 100 µM | > 100 µM | > 100 µM | > 100 µM | – | – | – | – | – | – | – | – | –
18 | c1nc(NCCc2cnc[nH]2)c2[nH]cnc2n1 | > 100 µM | > 100 µM | > 100 µM | > 100 µM | > 100 µM | – | – | – | – | – | – | – | – | –
19 | O=C1NC(=O)c2ccccc2/C1=C/c1ccc2c(c1)OCO2 | 61.4 µM | 50.1 µM | 29.8 µM | 46.4 µM | 47.2 µM | – | – | – | – | – | – | – | – | –
20 | O=C(Nc1sccc1S(=O)(=O)c1ccc(Cl)cc1)c1ccc(F)cc1F | 39.5 µM | > 100 µM | > 100 µM | > 100 µM | 80.5 µM | – | – | – | – | – | – | – | – | –
21 | CN(Cc1cnc2nc(N)nc(N)c2n1)c1ccc(C(=O)NC23CC4CC(CC(C4)C2)C3)cc1 | 23.6 µM | 31.6 µM | 17.7 µM | 53 µM | 31.9 µM | – | – | – | – | – | – | – | – | –
22 | Cc1ccc(S(=O)(=O)N2C[C@@H]3CC[C@]4(CO[Si](C)(C)C(C)(C)C)N[C@@H](c5ccccc5)[C@H]2[C@H]34)cc1 | > 100 µM | > 100 µM | 30.6 µM | > 100 µM | > 100 µM | – | – | – | – | – | – | – | – | –
23 | CC1=NN(c2cccc(Cl)c2)C2(C1=Cc1ccc(O)cc1)C(Cl)C(=O)N2c1nc2ccccc2s1 (stereo unspecified) | 45.9 µM | 83.4 µM | 39.8 µM | 47.5 µM | > 100 µM | – | – | – | – | – | – | – | – | –
24 | CCCC[C@@H](C)/C=C1\CN2CCC[C@H]2[C@@](C)(OCc2ccccc2)[C@@H]1O | > 50 µM | > 50 µM | > 50 µM | > 50 µM | > 50 µM | – | – | – | – | – | – | – | – | –
25 | COc1cccc(N=N/C(=N/NC(=O)c2ccc(C)cc2)c2ccc(N(CCC#N)CCC#N)cc2OC)c1 | > 100 µM | > 100 µM | > 100 µM | > 100 µM | > 100 µM | – | – | – | – | – | – | – | – | –
26 | CN1/C(=C/C=C/C=C/C=C2C(=O)c3ccccc3C2=O)C(C)(C)c2ccccc21 | 66.3 µM | > 100 µM | 36.1 µM | > 100 µM | > 100 µM | – | – | – | – | – | – | – | – | –
